Measured values: patent US10988523B2, “Modified lipidated Relaxin B chain peptides and their therapeutic use” (Sanofi, priority 2018, dated 2021)
*1 amine or outer side, *2 acyl side, *3 side chain or, on linkers, in order; H or OH if unused. Where a SMILES comes first, the peptide text is derived from it. Side-chain parts run from the residue outwards. [ ]: non-standard residue; d: D form. The star is where a group is joined. X3 = CCCCCCCCCCCCCCCC(=O)N[C@@H](CCC(=O)N[C@@H](CCC(=O)N[C@@H](CCC(=O)N[C@@H](CCC(=O)NCCCC[C@H](NC(=O)CCC(=O)NCCCOCCOCCOCCCNC(=O)CCC(=O)NCCCOCCOCCOCCCN*)C(N)=O)C(=O)O)C(=O)O)C(=O)O)C(=O)O; Lys(Me3) = C[N+](C)(C)CCCC[C@H](N)C(=O)O; γGlu = O=C(O)[C@H](CCC(=O)[*:2])N[*:1]; Arg(Me) = CNC(=N)NCCC[C@H](N)C(=O)O; Stearoyl = CCCCCCCCCCCCCCCCCC(=O)*; Palmitoyl = CCCCCCCCCCCCCCCC(=O)*; αMeK = C[C@](N)(CCCCN)C(=O)O; Nle = CCCC[C@H](N)C(=O)O; AEEA = NCCOCCOCC(=O)O; Aib = CC(C)(N)C(=O)O

Target: T1, RXFP1 (Homo sapiens, UniProt Q9HBX9)
T1 construct: OVCAR5 cells expressing endogenous RXFP1; endogenous in cells; host or cells: OVCAR5 cells
T1 sequence (Q9HBX9 1-757): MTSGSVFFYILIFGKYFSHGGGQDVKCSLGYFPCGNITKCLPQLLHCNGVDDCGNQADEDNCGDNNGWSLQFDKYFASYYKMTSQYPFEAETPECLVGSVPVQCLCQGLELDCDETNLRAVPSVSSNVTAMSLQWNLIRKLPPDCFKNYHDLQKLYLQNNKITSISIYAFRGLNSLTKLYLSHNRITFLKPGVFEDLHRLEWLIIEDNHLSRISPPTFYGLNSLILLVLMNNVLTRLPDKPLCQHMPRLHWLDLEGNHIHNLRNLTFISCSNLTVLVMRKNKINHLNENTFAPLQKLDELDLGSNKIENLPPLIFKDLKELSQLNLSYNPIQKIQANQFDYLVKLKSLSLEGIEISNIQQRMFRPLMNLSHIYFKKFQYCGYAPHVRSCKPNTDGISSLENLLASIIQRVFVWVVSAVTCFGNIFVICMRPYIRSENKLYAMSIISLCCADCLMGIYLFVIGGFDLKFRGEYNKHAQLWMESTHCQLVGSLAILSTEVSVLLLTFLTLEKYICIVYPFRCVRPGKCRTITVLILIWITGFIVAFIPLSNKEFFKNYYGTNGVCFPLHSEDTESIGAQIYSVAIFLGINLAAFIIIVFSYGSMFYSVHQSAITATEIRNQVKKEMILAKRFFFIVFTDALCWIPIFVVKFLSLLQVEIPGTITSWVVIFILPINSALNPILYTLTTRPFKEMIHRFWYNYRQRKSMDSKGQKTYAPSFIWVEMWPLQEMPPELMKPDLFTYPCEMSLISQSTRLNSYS
Experiment: OVCAR5 cAMP assay (HTRF), RXFP1 agonist activity
Type: cell-based
Conditions: for Emax: OVCAR-5, maximal cAMP relative to H2-relaxin maximum (100%), read-out: EMax, OVCAR 5 cells (cAMP); for EC50: OVCAR5 cells, cAMP HTRF, read-out: EC50 (nM), OVCAR 5 cells (cAMP)
Method in brief: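 cAMP accumulation readout: after 1 mM IBMX for 40 min, endogenous-RXFP1 OVCAR5 cells got rising peptide concentrations without FCS, 30 min, 37° C, then lysis with HTRF cAMP reagents. Nonlinear regression gave EC50; Emax expressed relative to H2-relaxin maximum, same occasion.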

## CCCCCCCCCCCCCCCCCC(=O)N[C@@H](CCC(=O)N[C@@H](CCC(=O)N[C@@H](CCC(=O)N[C@@H](CCC(=O)NCCOCCOCC(=O)NCCOCCOCC(=O)NCCOCCOCC(=O)NCCCC[C@H](NC(=O)[C@H](CCCCNC(C)=O)NC(=O)[C@H](CCCC[N+](C)(C)C)NC(=O)[C@H](CCCNC(=N)NC)NC(=O)[C@](C)(CCCCN)NC(=O)[C@H](CO)NC(=O)[C@H](Cc1c[nH]c2ccccc12)NC(=O)[C@@H](NC(=O)[C@H](CO)NC(=O)[C@H](CCCC)NC(=O)CNC(=O)[C@H](CCC(=O)O)NC(=O)C(C)(C)NC(=O)C(C)(C)NC(=O)[C@@H](NC(=O)[C@H](CCCCNC(C)=O)NC(=O)[C@H](C)NC(=O)[C@H](CCCNC(=N)N)NC(=O)[C@@H](NC(=O)[C@H](CCCCN)NC(=O)[C@H](CCC(=O)O)NC(=O)[C@H](CCCNC(=N)N)NC(=O)CNC(=O)[C@H](CCC(=O)O)NC(=O)[C@H](CC(C)C)NC(C)=O)C(C)C)[C@@H](C)CC)[C@@H](C)O)C(N)=O)C(=O)O)C(=O)O)C(=O)O)C(=O)O [compound 138] (Ac-LEGREKVRAK(Ac)I[Aib][Aib]EG[Nle]STWS[αMeK][Arg(Me)][Lys(Me3)]K(Ac)K([AEEA-AEEA-AEEA-γGlu-γGlu-γGlu-γGlu-Stearoyl])-NH2)
  Emax: 91%

## CCCCCCCCCCCCCCCC(=O)N[C@@H](CCC(=O)NCCCC[C@H](NC(=O)CC[C@H](NC(=O)CC[C@H](NC(=O)CC[C@H](NC(=O)COCCOCCNC(=O)COCCOCCNC(=O)COCCOCCNC(=O)COCCOCCNC(=O)[C@H](CCCCNC(C)=O)NC(=O)[C@H](C)NC(=O)[C@H](C)NC(=O)[C@](C)(CCCCN)NC(=O)[C@H](CO)NC(=O)[C@H](Cc1ccccc1)NC(=O)[C@@H](NC(=O)[C@H](CO)NC(=O)[C@H](CCCC)NC(=O)CNC(=O)[C@H](CCC(=O)O)NC(=O)C(C)(C)NC(=O)C(C)(C)NC(=O)[C@@H](NC(=O)[C@H](CCCCNC(C)=O)NC(=O)[C@H](C)NC(=O)[C@H](CCCNC(=N)N)NC(=O)[C@@H](NC(=O)[C@H](CCCCN)NC(=O)[C@H](CCC(=O)O)NC(=O)[C@H](CCCNC(=N)N)NC(=O)CNC(=O)[C@H](CCC(=O)O)NC(=O)[C@H](CC(C)C)NC(C)=O)C(C)C)[C@@H](C)CC)[C@@H](C)O)C(=O)O)C(=O)O)C(=O)O)C(N)=O)C(=O)O [compound 139] (Ac-LEGREKVRAK(Ac)I[Aib][Aib]EG[Nle]STFS[αMeK]AAK(Ac)[AEEA][AEEA][AEEA][AEEA][γGlu][γGlu][γGlu]K([γGlu-Palmitoyl])-NH2)
  EC50: 0.3 nM
  Emax: 92%

## CCCCCCCCCCCCCCCC(=O)N[C@@H](CCC(=O)N[C@@H](CCC(=O)N[C@@H](CCC(=O)N[C@@H](CCC(=O)NCCOCCOCC(=O)NCCOCCOCC(=O)NCCOCCOCC(=O)NCCOCCOCC(=O)NCCCC[C@H](NC(=O)[C@H](CCCCNC(C)=O)NC(=O)[C@H](CCCCN)NC(=O)[C@H](CCCNC(=N)N)NC(=O)[C@](C)(CCCCN)NC(=O)[C@H](CO)NC(=O)[C@H](Cc1ccccc1)NC(=O)[C@@H](NC(=O)[C@H](CO)NC(=O)[C@H](CCCC)NC(=O)CNC(=O)[C@H](CCC(=O)O)NC(=O)C(C)(C)NC(=O)C(C)(C)NC(=O)[C@@H](NC(=O)[C@H](CCCCNC(C)=O)NC(=O)[C@H](C)NC(=O)[C@H](CCCNC(=N)N)NC(=O)[C@@H](NC(=O)[C@H](CCCCN)NC(=O)[C@H](CCC(=O)O)NC(=O)[C@H](CCCNC(=N)N)NC(=O)CNC(=O)[C@H](CCC(=O)O)NC(=O)[C@H](CC(C)C)NC(C)=O)C(C)C)[C@@H](C)CC)[C@@H](C)O)C(N)=O)C(=O)O)C(=O)O)C(=O)O)C(=O)O [compound 140] (Ac-LEGREKVRAK(Ac)I[Aib][Aib]EG[Nle]STFS[αMeK]RKK(Ac)K([AEEA-AEEA-AEEA-AEEA-γGlu-γGlu-γGlu-γGlu-Palmitoyl])-NH2)
  EC50: 0.4 nM
  Emax: 88%

## CCCCCCCCCCCCCCCC(=O)N[C@@H](CCC(=O)N[C@@H](CCC(=O)N[C@@H](CCC(=O)N[C@@H](CCC(=O)NCCOCCOCC(=O)NCCOCCOCC(=O)NCCOCCOCC(=O)NCCOCCOCC(=O)NCCCC[C@H](NC(=O)[C@H](CCCCNC(C)=O)NC(=O)[C@H](CCCC[N+](C)(C)C)NC(=O)[C@H](CCCNC(=N)NC)NC(=O)[C@](C)(CCCCN)NC(=O)[C@H](CO)NC(=O)[C@H](Cc1c[nH]c2ccccc12)NC(=O)[C@@H](NC(=O)[C@H](CO)NC(=O)[C@H](CCCC)NC(=O)CNC(=O)[C@H](CCC(=O)O)NC(=O)C(C)(C)NC(=O)C(C)(C)NC(=O)[C@@H](NC(=O)[C@H](CCCCNC(C)=O)NC(=O)[C@H](C)NC(=O)[C@H](CCCNC(=N)N)NC(=O)[C@@H](NC(=O)[C@H](CCCCN)NC(=O)[C@H](CCC(=O)O)NC(=O)[C@H](CCCNC(=N)N)NC(=O)CNC(=O)[C@H](CCC(=O)O)NC(=O)[C@H](CC(C)C)NC(C)=O)C(C)C)[C@@H](C)CC)[C@@H](C)O)C(N)=O)C(=O)O)C(=O)O)C(=O)O)C(=O)O [compound 141] (Ac-LEGREKVRAK(Ac)I[Aib][Aib]EG[Nle]STWS[αMeK][Arg(Me)][Lys(Me3)]K(Ac)K([AEEA-AEEA-AEEA-AEEA-γGlu-γGlu-γGlu-γGlu-Palmitoyl])-NH2)
  EC50: 0.16 nM
  Emax: 87%

## CCCCCCCCCCCCCCCC(=O)N[C@@H](CCC(=O)N[C@@H](CCC(=O)N[C@@H](CCC(=O)N[C@@H](CCC(=O)NCCCC[C@H](NC(=O)CCC(=O)NCCCOCCOCCOCCCNC(=O)CCC(=O)NCCCOCCOCCOCCCNC(=O)[C@H](CCCCNC(C)=O)NC(=O)[C@H](CCCCN)NC(=O)[C@H](CCCNC(=N)N)NC(=O)[C@](C)(CCCCN)NC(=O)[C@H](CO)NC(=O)[C@H](Cc1ccccc1)NC(=O)[C@@H](NC(=O)[C@H](CO)NC(=O)[C@H](CCCC)NC(=O)CNC(=O)[C@H](CCC(=O)O)NC(=O)C(C)(C)NC(=O)C(C)(C)NC(=O)[C@@H](NC(=O)[C@H](CCCCNC(C)=O)NC(=O)[C@H](C)NC(=O)[C@H](CCCNC(=N)N)NC(=O)[C@@H](NC(=O)[C@H](CCCCN)NC(=O)[C@H](CCC(=O)O)NC(=O)[C@H](CCCNC(=N)N)NC(=O)CNC(=O)[C@H](CCC(=O)O)NC(=O)[C@H](CC(C)C)NC(C)=O)C(C)C)[C@@H](C)CC)[C@@H](C)O)C(N)=O)C(=O)O)C(=O)O)C(=O)O)C(=O)O [compound 142] (Ac-LEGREKVRAK(Ac)I[Aib][Aib]EG[Nle]STFS[αMeK]RKK(Ac)-X3)
  EC50: 0.02 nM
  Emax: 91%

## CCCCCCCCCCCCCCCC(=O)N[C@@H](CCC(=O)N[C@@H](CCC(=O)N[C@@H](CCC(=O)N[C@@H](CCC(=O)NCCCC[C@H](NC(=O)COCCOCCNC(=O)COCCOCCNC(=O)COCCOCCNC(=O)COCCOCCNC(=O)[C@H](CCCCNC(C)=O)NC(=O)[C@H](CCCCN)NC(=O)[C@H](CCCNC(=N)N)NC(=O)[C@](C)(CCCCN)NC(=O)[C@H](CO)NC(=O)[C@H](Cc1ccccc1)NC(=O)[C@@H](NC(=O)[C@H](CO)NC(=O)[C@H](CCCC)NC(=O)CNC(=O)[C@H](CCC(=O)O)NC(=O)C(C)(C)NC(=O)C(C)(C)NC(=O)[C@@H](NC(=O)[C@H](CCCCNC(C)=O)NC(=O)[C@H](C)NC(=O)[C@H](CCCNC(=N)N)NC(=O)[C@@H](NC(=O)[C@H](CCCCN)NC(=O)[C@H](CCC(=O)O)NC(=O)[C@H](CCCNC(=N)N)NC(=O)CNC(=O)[C@H](CCC(=O)O)NC(=O)[C@H](CC(C)C)NC(C)=O)C(C)C)[C@@H](C)CC)[C@@H](C)O)C(N)=O)C(=O)O)C(=O)O)C(=O)O)C(=O)O [compound 143] (Ac-LEGREKVRAK(Ac)I[Aib][Aib]EG[Nle]STFS[αMeK]RKK(Ac)[AEEA][AEEA][AEEA][AEEA]K([γGlu-γGlu-γGlu-γGlu-Palmitoyl])-NH2)
  EC50: 0.4 nM
  Emax: 88%

## CCCCCCCCCCCCCCCC(=O)N[C@@H](CCC(=O)N[C@@H](CCC(=O)N[C@@H](CCC(=O)NCCCC[C@H](NC(=O)COCCOCCNC(=O)COCCOCCNC(=O)COCCOCCNC(=O)COCCOCCNC(=O)[C@H](CCCCNC(C)=O)NC(=O)[C@H](CCCCN)NC(=O)[C@H](CCCNC(=N)N)NC(=O)C(C)(C)NC(=O)[C@H](CO)NC(=O)[C@H](Cc1ccccc1)NC(=O)[C@@H](NC(=O)[C@H](CO)NC(=O)[C@H](CCCC)NC(=O)CNC(=O)[C@H](CCC(=O)O)NC(=O)C(C)(C)NC(=O)C(C)(C)NC(=O)[C@@H](NC(=O)[C@H](CCCCNC(C)=O)NC(=O)[C@H](C)NC(=O)[C@H](CCCNC(=N)N)NC(=O)[C@@H](NC(=O)[C@H](CCCCN)NC(=O)[C@H](CCC(=O)O)NC(=O)[C@H](CCCNC(=N)N)NC(=O)CNC(=O)[C@H](CCC(=O)O)NC(=O)[C@H](CC(C)C)NC(C)=O)C(C)C)[C@@H](C)CC)[C@@H](C)O)C(N)=O)C(=O)O)C(=O)O)C(=O)O [compound 144] (Ac-LEGREKVRAK(Ac)I[Aib][Aib]EG[Nle]STFS[Aib]RKK(Ac)[AEEA][AEEA][AEEA][AEEA]K([γGlu-γGlu-γGlu-Palmitoyl])-NH2)
  Emax: 94%
